Results: the METLIN SMRT retention time set (Domingo-Almenara et al. 2019)

Test: gradient 5% acetonitrile 3 min, to 50% in 2 min, to 85% in 15 min, held 3 min, 100 µL/min
Settings: column: Zorbax Extend-C18 2.1 x 50 mm; eluents: water / acetonitrile, 0.1% formic acid
Procedure, shortened: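 Retention time was recorded from adduct peaks, which were picked computationally and each inspected manually. Pure standards ran in mixtures of ~100 molecules on HPLC coupled to a quadrupole time-of-flight mass spectrometer, in positive and negative ionization mode, through a Zorbax Extend-C18 column (2.1 × 50 mm, 1.8 μm) at 100 μL/min. Eluents were water and acetonitrile, each with 0.1% formic acid.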

| RP-LC retention time [s] | Structure (SMILES) |
| --- | --- |
| 786 | Cn1c(=O)c(SCC(=O)NCc2ccccc2Cl)nc2cccnc21 |
| 662 | Cc1ccc(CNC(=O)C2CCN(c3cncnc3N3CCCC3)CC2)cc1 |
| 570 | O=C(O)c1cnc(NCc2ccncc2)nc1-c1ccccc1 |
| 741 | O=C(c1ccco1)N1CCN(c2ncnc3c2cnn3Cc2ccccc2)CC1 |
| 934 | CCOC(=O)c1nc(N2CCOCC2)c2c(-c3ccccc3Cl)noc2n1 |
| 924 | CN(CCc1noc(-c2ccc(F)cc2)n1)C(=O)Nc1cc(F)ccc1F |
| 1220 | Cc1ccc(-c2nc(Cn3ccn4nc(-c5ccc(F)cc5)cc4c3=O)c(C)o2)cc1 |
| 747 | Cc1ccc(F)cc1NS(=O)(=O)c1c[nH]c2ncccc12 |
| 841 | CCCN1C(=O)COc2cc(-c3noc(C(=O)NCC4CCCO4)n3)ccc21 (stereo not given) |
| 661 | O=C(CSc1ccncc1)N1CCCn2nc(-c3ccc(Cl)cc3)cc2C1 |
| 596 | Cc1ccc2[nH]c(=O)c(CCC(=O)NCc3ccccn3)cc2c1 |
| 668 | CC1CCC(C(=O)NC(Cc2c[nH]c3ccccc23)C(=O)Nc2ccncc2)CC1 (stereo not given) |
| 758 | CCc1noc(NC(C)=O)c1-c1ccc(OC)c(S(=O)(=O)NCc2ccc(OC)cc2)c1 |
| 1350 | CCCCCn1c(=O)c2ccccc2n(Cc2nc(-c3ccc(C)cc3)no2)c1=O |
| 761 | CCc1nc2c(NC(=O)c3cccs3)cccn2n1 |
| 796 | COc1ccc(NC(=O)Cn2nc(N3CCCC3)c3ccccc3c2=O)cc1OC |
| 882 | CC(C)c1cc(-c2ccc(F)c3ccccc23)nc(N)n1 |
| 1270 | Cc1csc(-c2csc(S(=O)(=O)N3CCC(Cc4ccccc4)CC3)c2)n1 |
| 837 | O=C(Nc1ccccc1)N1CCC(OCc2ccccc2)C1 (stereo not given) |
| 601 | CC(=O)N1c2ccc(S(=O)(=O)N3CCCCC3)cc2CC1C(=O)NCCN(C)C (stereo not given) |
| 549 | O=C(NC1CCN(Cc2ccccc2)CC1)c1ccccc1Cl |
| 942 | Cn1cc(SCC(=O)N2CCCc3ccccc32)c2ccccc21 |
| 1020 | COc1cccc(-c2noc(CN3C(=O)COc4cc(Cl)ccc43)n2)c1OC |
| 966 | COc1ccc(-c2cc3c(=O)n(Cc4nc(-c5ccccc5)oc4C)ccn3n2)cc1OC |

| RP-LC retention time [s] | Structure (SMILES) |
| --- | --- |
| 1040 | CCCCN1C(=O)C(C)(C(=O)NCc2ccc(C)cc2)Oc2cccnc21 (stereo not given) |
| 834 | CCn1c(=O)n(Cc2ccccc2C(F)(F)F)c2cncnc21 |
| 930 | Cc1cccc(NC(=O)Cn2nc3c(Oc4ccc(Cl)cc4)nccn3c2=O)c1 |
| 799 | Cc1nc(N2CCCC(C(=O)NC3CCCC3)C2)c2c(C)c(C)oc2n1 (stereo not given) |
| 666 | Cc1cc(N2CCN(C(=O)c3ccc4c(c3)OCO4)CC2)nc(N2CCCCC2)n1 |
| 607 | CS(=O)(=O)N1CC[C@H]2CN(C(=O)c3ccc4ncccc4c3)C[C@@]2(CF)C1 |
| 860 | CN1c2cc(C(=O)NCc3ccccc3Br)ccc2C(=O)N2CCCCC21 (stereo not given) |
| 1310 | CCOc1ccc2cccc(NC(=O)c3cc(C)oc3C)c2n1 |
| 848 | Cc1cc(C)n(-c2ccc(C(=O)NCc3ccc(C)o3)cn2)n1 |
| 745 | CC(C)CC(=O)N1CCc2c(c(C(=O)NCc3ccc4c(c3)OCO4)nn2C)C1 |
| 548 | CCOC(=O)C1CCC(CNC(=O)N2CCC(c3nc4ccncc4n3C)C2)CC1 (stereo not given) |
| 671 | Cc1cc(C)c(NC(=O)Cn2nc3c4ccccc4ncn3c2=O)c(C)c1 |
| 739 | Cn1cnc2ccc(-c3noc(-c4ccc(F)cc4)n3)cc21 |
| 668 | Cc1nc(-c2ccc(C(=O)NC3CC3)cc2)no1 |
| 957 | O=C(O)COC(=O)Cc1ccccc1Nc1c(Cl)cccc1Cl |
| 1410 | Clc1ccc(-c2csc(Nc3c(Cl)cccc3Cl)n2)cc1Cl |
| 806 | O=S(=O)(Nc1cc(-c2ccoc2)no1)c1ccc(F)cc1F |
| 892 | Cc1[nH]c(C(=O)N2CCCC(C(=O)NCCCc3ccccc3)C2)c(C)c1C(=O)OC(C)C (stereo not given) |
| 953 | CC(=O)c1ccc(NC(=O)Cn2c(-c3ccc(F)cc3)nc(C)cc2=O)cc1 |
| 592 | COc1ccc(OC)c(-c2cc(C(=O)NCC#CCN3CCc4ccccc4C3)[nH]n2)c1 |
| 866 | CCOC(=O)c1cccc(NS(=O)(=O)c2cc(-c3cc(C)[nH]n3)ccc2C)c1 |
| 840 | Cc1ccc(NS(=O)(=O)c2cc3n(c2)CCN(CC(C)C)C3=O)cc1F |
| 726 | COc1ccc(OC)c(CNC(=O)CCc2c(C)nn(-c3cc(N(C)C)ncn3)c2C)c1 |
| 758 | COC(=O)c1ccc(Cl)cc1NC(=O)N1CCCn2nc(-c3cccnc3)cc2C1 |

The remaining lines, values behind:

| Structure (SMILES) | RP-LC retention time [s] |
| --- | --- |
| CCCn1c(=O)sc2cc(S(=O)(=O)N3CCC(C(=O)NC4CCC(C)CC4)CC3)ccc21 (stereo not given) | 1030 |
| CCCN1C(=O)COc2ccc(-c3noc(-c4ccccc4Cl)n3)cc21 | 1240 |
| COc1ccc2[nH]c3c(c2c1)CCNC31CCN(S(=O)(=O)c2c(C)nn(C)c2C)CC1 | 641 |
| COc1ccc(CNC(=O)Cn2cccc2-c2nnc(-c3ccccc3)o2)cc1 | 862 |
| CCCn1cc(C(=O)Nc2ccc(S(N)(=O)=O)cc2)c(=O)c2ccc(C)nc21 | 867 |
| COc1ccc(C(=O)N2CCC(COc3ccc(C(=O)NC(C)C)cc3)CC2)cc1 | 820 |
| O=C1NC2(CCN(C(=O)Nc3ccc4c(c3)OCO4)CC2)Nc2c(Cl)cccc21 | 682 |
| Cn1nccc1C(=O)Nc1c(-c2cccc(F)c2)nc2sc(N3CCCCC3)nn12 | 882 |
| CCN1C(=O)COc2ccc(-c3csc(NC(=O)c4cccc(OC)c4)n3)cc21 | 967 |
| Cc1noc(-c2ccnc(-n3cnc(C(=O)NCCc4ccccc4)c3)c2)n1 | 823 |
| CCNc1cc(N2CCC(CCC(=O)N3CCCC3)CC2)ncn1 | 608 |
| COc1ccc(CNC(=O)c2cc(NC(C)=O)cc3nc(C)ccc23)cc1OC | 575 |
| Cc1nc(-c2cccc(NC(=O)c3cncc(Br)c3)c2)no1 | 834 |
| COc1ccc(NC(=O)C2CCN(S(=O)(=O)c3c(C)nn(-c4ccccc4)c3C)CC2)cc1 | 896 |
| COc1ccc(-c2cn3c(CC(=O)N4CCN(c5ccccc5)CC4)csc3n2)cc1OC | 730 |
| COCCNc1cc(-n2ccnc2C)n2nccc2n1 | 554 |
| Cc1ccc(C(=O)N2CCC(c3nc(C4CC4)n[nH]3)CC2)s1 | 600 |
| Cc1ccc(-c2nnc(N3CCC(C(=O)N4CCN(C5CCCCC5)CC4)CC3)o2)cc1 | 644 |
| COc1ccc(S(=O)(=O)NCc2c(-c3ccccc3)nc3sc(C)nn23)cc1 | 832 |
| CCN1c2ccccc2C(=O)NC12CCN(C(=O)NCc1ccc(F)cc1)CC2 | 769 |
| COc1ccc(-c2nc(NC3CCCCCC3)c3ccccc3n2)cc1 | 934 |

| Structure (SMILES) | RP-LC retention time [s] |
| --- | --- |
| CCCN(Cc1ccc(OC)cc1)Cc1cc(=O)n2cc(Cl)ccc2n1 | 654 |
| COc1cc(Cl)c(NS(=O)(=O)c2c(C)sc(C)c2-c2cc(C(F)(F)F)on2)c(OC)c1 | 1190 |
| C=CCNC(=O)c1ccc2c(c1)c(C)c(C)n2C | 828 |
| O=C(CN1C(=O)CN(C(=O)Nc2ccccc2)c2ccccc21)NCc1ccccn1 | 587 |
| CN1C(=O)C2CCCCN2c2ccc(C(=O)N3CCc4ccccc4C3)cc21 (stereo not given) | 946 |
| CCN1C(=O)c2cc(C(=O)N3CCN(c4ccccc4F)CC3)nn2CC1(C)C(=O)NC1CCCC1 (stereo not given) | 840 |
| CCCN1C(=O)COc2ccc(-c3csc(NC(=O)c4ccccc4C)n3)cc21 | 1060 |
| Cn1cc2c3c(cccc31)CN(C(=O)C1CCC1)CC2 | 878 |
| C=CCN(CC=C)c1nc(-c2ccccc2)nc2ccccc12 | 770 |
| COCCN1C(=O)Cc2ccccc2C1C(=O)NCc1ccccc1Cl (stereo not given) | 775 |
| COc1ccc(-c2cc(C(=O)N3CCN(c4c(C)n(C)c(=O)n(C)c4=O)CC3)c3ccccc3n2)cc1 | 806 |
| O=C(COc1cccc2c1CCN(Cc1ccc(F)cc1)C2=O)Nc1ccc2c(c1)OCO2 | 846 |
| CC1CCCCN1S(=O)(=O)c1cc(-c2nnc(C3CC3)o2)co1 (stereo not given) | 896 |
| CCn1c(=O)sc2cc(S(=O)(=O)N3CCC(C(=O)N(C)c4ccc(C)cc4)CC3)ccc21 | 953 |
| CSc1ccc(CNC(=O)Cc2cn(C)c3ncccc23)cc1 | 686 |
| COc1ccc(NC(=O)C2CCC(=O)N2S(=O)(=O)c2ccc(C)c(C)c2)cc1Cl (stereo not given) | 956 |
| CCc1cc(C(=O)Nc2ccc(C#N)cc2)nc2cc(-c3ccco3)nn12 | 1130 |
| O=C(Cc1csc2nc(-c3cccc(Br)c3)cn12)NC1CCCC1 | 888 |
| Cc1cc(C(=O)N2CC(F)(F)C[C@H]2c2nc(C3CC3)no2)on1 | 809 |
| O=C(COc1ccc(Cl)cc1Cl)Nc1nc(-c2ccccc2)cs1 | 1190 |
| COc1ccc(OC)c(CNC(=O)c2cn3ccc(C)cc3n2)c1 | 541 |
